Some results are limits rather than exact numbers.

Assay [1] concerns HCV sub-genomic replicon (I377/NS3-3′) in HuH-7 hepatoma cells (GS4.3). Nature of the assay: Quantitation by ELISA of NPTII in the HCV sub-genomic replicon, GS4.3. The conditions noted are these: Hepatitis C virus, GS4.3 replicon cells, 72 h incubation. Format: cell-based. The protocol: The HCV sub-genomic replicon (I377/NS3-3′, accession No. AJ242652), stably maintained in HuH-7 hepatoma cells, was created by Lohmann et al. Science 285: 110-113 (1999). The replicon-containing cell culture, designated GS4.3, was obtained from Dr. Christoph Seeger of the Institute for Cancer Research, Fox Chase Cancer Center, Philadelphia, Pa.
GS4.3 cells were maintained at 37° C., 5% CO2, in DMEM (Gibco 11965-092) supplemented with L-glutamine 200 mM (100×) (Gibco25030-081), non-essential amino acids (NEAA)(Biowhittaker 13-114E), heat-inactivated (HI) Fetal Bovine Serum(FBS)(Hyclone SH3007.03) and […] geneticin (G418)(Gibco 10131-035). Cells were sub-divided 1:3 or 4 every 2-3 days.
24 h prior to the assay, GS4.3 cells were collected, counted, and plated in 96-well plates (Costar 3585) at 7500 cells/well in 100 μL standard maintenance medium (above) and incubated in the conditions above. To initiate the assay, culture medium was removed, cells were washed once with PBS (Gibco 10010-023) and 90 μl Assay Medium (DMEM, L-glutamine, NEAA, 10% HI FBS, no G418) was added. Inhibitors were made as a 10× stock in Assay Medium, (3-fold dilutions from 10 μM to […] final concentration, final DMSO concentration 1%), 10 μL were added to duplicate wells, plates were rocked to mix, and incubated as above for 72 h.
An NPTII Elisa kit was obtained from AGDIA, Inc. (Compound direct ELISA test system for Neomycin Phosphotransferase II, PSP 73000/4800). Manufacturer's instructions were followed, with some modifications. 10×PEB-1 lysis buffer was made up to include 500 μM PMSF (Sigma P7626, 50 mM stock in isopropanol). After 72 h incubation, cells were washed once with PBS and 150 μL PEB-1 with PMSF was added per well. Plates were agitated vigorously for 15 minutes, room temperature, and then frozen at −70° C. Plates were thawed, lysates were mixed thoroughly, and 100 μL were applied to an NPTII Elisa plate. A standard curve was made. Lysate from DMSO-treated control cells was pooled, serially diluted with PEB-1 with PMSF, and applied to duplicate wells of the ELISA plate, in a range of initial lysate amount of 150 μL. In addition, 100 μL buffer alone was applied in duplicate as a blank. Plates were sealed and gently agitated at room temperature for 2 h. Following capture incubation, the plates were washed 5×300 μL with PBS-T (0.5% Tween-20, PBS-T was supplied in the ELISA kit). For detection, a 1× dilution of enzyme conjugate diluent MRS-2 (5×) was made in PBS-T, into which 1:100 dilutions of enzyme conjugates A and B were added, as per instructions. Plates were resealed, and incubated with agitation, covered, room temperature, for 2 h. The washing was then repeated and 100 μL of room temperature TMB substrate was added. After approximately 30 minutes incubation (room temperature, agitation, covered), the reaction was stopped with 50 μL 3M sulfuric acid. Plates were read at 450 nm on a Molecular Devices Versamax plate reader.
Inhibitor effect was expressed as a percentage of DMSO-treated control signal, and inhibition curves were calculated using a 4-parameter equation: y=A+4B−A)/(1+((C/x)̂D))), where C is half-maximal activity or EC50.
(ELISA stands for enzyme-linked immunosorbent assay.)

The target of assay [2] is T1, HCV NS3 protease (full-length NS3/NS4A-2 complex) (Hepatitis C virus genotype 1a, UniProt P27958).
T1 construct: Recombinant E. coli or Baculovirus full-length NS3 was diluted to 3.33 μM with assay buffer; host or cells: E. coli or baculovirus (insect cells)
T1 sequence (P27958 1027-1657, one chain of several): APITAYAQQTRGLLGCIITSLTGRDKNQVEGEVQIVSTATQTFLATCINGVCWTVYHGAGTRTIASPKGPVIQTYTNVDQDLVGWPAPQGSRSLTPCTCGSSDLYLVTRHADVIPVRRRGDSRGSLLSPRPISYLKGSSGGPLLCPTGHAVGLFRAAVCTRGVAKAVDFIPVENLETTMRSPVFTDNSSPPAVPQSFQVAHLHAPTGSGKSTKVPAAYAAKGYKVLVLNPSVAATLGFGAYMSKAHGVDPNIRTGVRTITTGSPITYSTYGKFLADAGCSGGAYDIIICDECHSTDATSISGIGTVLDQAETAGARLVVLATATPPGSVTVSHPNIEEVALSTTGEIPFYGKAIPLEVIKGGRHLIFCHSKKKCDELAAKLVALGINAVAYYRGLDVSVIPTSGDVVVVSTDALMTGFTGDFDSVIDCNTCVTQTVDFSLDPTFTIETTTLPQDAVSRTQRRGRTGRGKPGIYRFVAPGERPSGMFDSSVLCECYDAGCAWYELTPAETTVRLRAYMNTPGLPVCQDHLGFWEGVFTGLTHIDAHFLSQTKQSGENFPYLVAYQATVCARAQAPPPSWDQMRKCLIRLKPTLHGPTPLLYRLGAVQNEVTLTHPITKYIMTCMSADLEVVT
Nature of the assay: NS3 Inhibition Assay (NS3-NS4 protease assay, RETS1 substrate). The format is biochemical. The following applies: NS3/NS4A-2, RETS1 substrate, 10 minutes pre-incubation. The protocol: NS3 Complex Formation with NS4A-2.
Recombinant E. coli or Baculovirus full-length NS3 was diluted to 3.33 μM with assay buffer and the material was transferred to an eppendorf tube and placed in a water bath in a 4° C. refrigerator. The appropriate amount of NS4A-2 diluted to 8.3 mM in assay buffer was added to an equal the volume of NS3 above (conversion factor—3.8 mg/272 μL assay buffer). The material was transferred to an eppendorf tube and placed in water bath in a 4° C. refrigerator.
After equilibration to 4° C., equal volumes of NS3 and NS4A-2 solutions were combined in an eppendorf tube, mixed gently with a manual pipettor, and incubated for 15 minutes in the 4° C. water bath. Final concentrations in the mixture are 1.67 μM NS3, 4.15 mM NS4A-2 (2485-fold molar excess NS4A-2).
After 15 minutes at 4° C., the NS3/NS4A-2 eppendorf tube was removed and placed in a room temperature water bath for 10 minutes. NS3/NS4A-2 was aliquoted at appropriate volumes and stored at −80° C. (E. coli NS3 run at 2 nM in assay, aliquot at 25 μL. BV NS3 run at 3 nM in assay, aliquot at 30 μL).
Step a. Sample compounds were dissolved to 10 mM in DMSO then diluted to 2.5 mM (1:4) in DMSO. Typically, compounds were added to an assay plate at 2.5 mM concentration, yielding upon dilution a starting concentration of 50 μM in the assay inhibition curve. Compounds were serial diluted in assay buffer to provide test solutions at lower concentrations.
Step 1. The E. coli. NS3/NS4A-2 was diluted to 4 nM NS3 (1:417.5 of 1.67 μM stock−18 μL 1.67 μM stock+7497 μL assay buffer). The BV NS3/NS4A-2 was diluted to 6 nM NS3 (1:278.3 of 1.67 μM stock−24 μL 1.67 μM stock+6655 μL assay buffer).
Step. 2. Using the manual multichannel pipettor, and being careful not to introduce bubbles into the plate, 50 μL assay buffer was added to wells A01-H01 of a black Costar 96-well polypropylene storage plate.
Step 3. Using the manual multichannel pipettor, and being careful not to introduce bubbles into the plate, 50 μL of diluted NS3/NS4A-2 from step 1 was added to wells A02-H12 of the plate in step 2.
Step 4. Using the manual multichannel pipettor, and being careful not to introduce bubbles into the plate, 25 μL of the wells in drug dilution plate in step a was transferred to corresponding wells in assay plate in step 3. The tips on the multichannel pipettor were changed for each row of compounds transferred.
Step 5. Using the manual multichannel pipettor, and being careful not to introduce bubbles into the plate, the contents of the wells from the assay plate in step 4 were mixed by aspirating and dispensing 35 μL of the 75 μL in each well five times. The tips on multichannel pipettor were changed for each row of wells mixed.
Step 6. The plate was covered with a polystyrene plate lid, and the plate from step 5 containing NS3 protease and sample compounds was pre-incubated 10 minutes at room temperature.
While the plate from step 6 is pre-incubating, the RETS1 substrate was diluted in a 15 mL polypropylene centrifuge tube. The RETS1 substrate was diluted to 8 μM (1:80.75 of 646 μM stock−65 μL 646 μM stock+5184 μL assay buffer).
After the plate in step 6 finished pre-incubating, and using the manual multichannel, 25 μL of substrate was added to all wells on the plate. The contents of the wells of the plate were quickly mixed, as in step 5, mixing 65 μL of the 100 μL in the wells.
The plate was read in kinetic mode on the Molecular Devices SpectraMax Gemini XS plate reader. Reader settings: Read time: 30 minutes, Interval: 36 seconds, Reads: 51, Excitation λ: 335 nm, Emission λ: 495 nm, cutoff: 475 nm, Automix: off, Calibrate: once, PMT: high, Reads/well: 6, Vmax pts: 21 or 28/51 depending on length of linearity of reaction
IC50s are determined using a four parameter curve fit equation, and converted to Ki's using the following Km's: • Full-length E. coli NS3-2.03 μM • Full-length BV NS3-1.74 μM • where Ki=IC50/(1+[S]/Km))

As usually defined, the EC50 is the midpoint of the concentration-response curve. Low values mean an effect from little substance, high ones a need for much substance. The term IC50 denotes the point on the concentration scale where inhibition reaches its midpoint. Higher therefore signals a need for much substance. Compound `CC[C@@H]1C[C@@]12NC(=O)[C@@H]1C[C@H](CN1C(=O)[C@@H](NC(=O)OC(C)(C)C)C(C)(C)C)Oc1nc3c(cccc3n1C(C)C)C(=O)NCC=CCCCC1(CC1)S(=O)(=O)NC2=O` [Compound 9] yielded an EC50 in assay [1] of 10 to 100 nM. In addition, the IC50 in assay [2] was not above 10 nM.

In assay [1], `CC[C@@H]1C[C@@]12NC(=O)[C@@H]1C[C@H](CN1C(=O)[C@@H](NC(=O)OC(C)(C)C)C(C)(C)C)Oc1nc3c(cccc3n1C(C)C)C(=O)NCCC=CCCC1(CC1)S(=O)(=O)NC2=O` [Compound 10] yielded an EC50 not below 100 nM. Besides, the IC50 in assay [2] is not above 10 nM.

On to `CC[C@@H]1C[C@@]12NC(=O)[C@@H]1C[C@H](CN1C(=O)[C@@H](NC(=O)OC(C)(C)C)C(C)(C)C)Oc1nc3c(cccc3n1C(C)C)C(=O)NCCCCCCC1(CC1)S(=O)(=O)NC2=O` [Compound 11], for which the EC50 in assay [1] was not below 100 nM. Also, in assay [2], the IC50 was not above 10 nM.

As for `CC[C@@H]1C[C@@]12NC(=O)[C@@H]1C[C@H](CN1C(=O)[C@@H](NC(=O)OC(C)(C)C)C(C)(C)C)Oc1nc3c(cccc3n1C(C)C)C(=O)NCCC=CCCCC1(CC1)S(=O)(=O)NC2=O` [Compound 12], the EC50 in assay [1] was in the range of 10 to 100 nM. Also, in assay [2], the IC50 is not above 10 nM.

Take `CC[C@@H]1C[C@@]12NC(=O)[C@@H]1C[C@H](CN1C(=O)[C@@H](NC(=O)OC(C)(C)C)C(C)(C)C)Oc1nc3c(cccc3n1C(C)C)C1=NC(C(C)C)=C(CCC=CCCC3(CC3)S(=O)(=O)NC2=O)S1` [Compound 13]: in assay [1], the EC50 was not below 100 nM. Moreover, the 50% inhibitory concentration (IC50) in assay [2] is not above 10 nM.

Compound `CC[C@@H]1C[C@@]12NC(=O)[C@@H]1C[C@H](CN1C(=O)[C@@H](NC(=O)OC(C)(C)C)C(C)(C)C)Oc1nc3c(cccc3n1C(C)C)C(=O)NCCCCCCCC1(CC1)S(=O)(=O)NC2=O` [Compound 14] returned an EC50 in assay [1] not above 10 nM. Moreover, the IC50 in assay [2] is not above 10 nM.

Consider `CC[C@@H]1C[C@@]12NC(=O)[C@@H]1C[C@H](CN1C(=O)[C@@H](NC(=O)OC(C)(C)C)C(C)(C)C)Oc1nc3c(cccc3n1C(C)C)C1=NC(C(C)C)=C(CCCCCCC3(CC3)S(=O)(=O)NC2=O)S1` [Compound 15], for which the EC50 in assay [1] was not below 100 nM. The compound also yielded an IC50 in assay [2] not above 10 nM.

In assay [1], `CC[C@@H]1C[C@@]12NC(=O)[C@@H]1C[C@H](CN1C(=O)[C@@H](NC(=O)OC(C)(C)C)C(C)(C)C)Oc1nc3c(cccc3n1C(C)C)C1=NC(C(C)C)=C(CCC/C=C/CCCC3(CC3)S(=O)(=O)NC2=O)S1` [Compound 101] displayed an EC50 not below 100 nM. For the same compound, in assay [2], the IC50 was not above 10 nM.

`CC[C@@H]1C[C@@]12NC(=O)[C@@H]1C[C@H](CN1C(=O)[C@@H](NC(=O)OC(C)(C)C)C(C)(C)C)Oc1nc3c(cccc3n1C(C)C)C1=NC(C(C)C)=C(CCCCCCCCC3(CC3)S(=O)(=O)NC2=O)S1` [Compound 102] yielded an EC50 in assay [1] not below 100 nM. In assay [2], this compound displayed an IC50 of 10 to 100 nM.

The compound `CC[C@@H]1C[C@@]12NC(=O)[C@@H]1C[C@H](CN1C(=O)[C@@H](N)C(C)(C)C)Oc1nc3c(cccc3n1C(C)C)C1=NC(C(C)C)=C(CCC/C=C/CCCC3(CC3)S(=O)(=O)NC2=O)S1` [Compound 103] returned an EC50 in assay [1] not below 100 nM. Moreover, the IC50 in assay [2] was 10 to 100 nM.

Consider `CC[C@@H]1C[C@@]12NC(=O)[C@@H]1C[C@H](CN1C(=O)[C@@H](N)C(C)(C)C)Oc1nc3c(cccc3n1C(C)C)C1=NC(C(C)C)=C(CCCCCCCCC3(CC3)S(=O)(=O)NC2=O)S1` [Compound 104], for which the EC50 in assay [1] was not below 100 nM. The compound also returned an IC50 in assay [2] of 10 to 100 nM.

The compound `CC[C@@H]1C[C@@]12NC(=O)[C@@H]1C[C@H](CN1C(=O)[C@@H](NC(=O)OC(C)(C)C)C(C)(C)C)Oc1nc3c(cccc3n1C(C)C)C1=NC(C(C)C)=C(CC/C=C/CCCCS(=O)(=O)NC2=O)S1` [Compound 105] came in with an EC50 in assay [1] not below 100 nM. In assay [2], this compound had an IC50 not above 10 nM.

In turn, `CC[C@@H]1C[C@@]12NC(=O)[C@@H]1C[C@H](CN1C(=O)[C@@H](NC(=O)OC(C)(C)C)C(C)(C)C)Oc1nc3c(cccc3n1C(C)C)C1=NC(C(C)C)=C(CC/C=C\CCCCS(=O)(=O)NC2=O)S1` [Compound 106] returned an EC50 in assay [1] not below 100 nM. Further, the IC50 in assay [2] is 10 to 100 nM.

Compound `CC[C@@H]1C[C@@]12NC(=O)[C@@H]1C[C@H](CN1C(=O)[C@@H](NC(=O)OC(C)(C)C)C(C)(C)C)Oc1nc3c(cccc3n1C(C)C)C1=NC(C(C)C)=C(CCCCCCCCS(=O)(=O)NC2=O)S1` [Compound 107] registered an EC50 in assay [1] not below 100 nM. Also, the IC50 in assay [2] lay within 10 to 100 nM.

`CC[C@@H]1C[C@@]12NC(=O)[C@@H]1C[C@H](CN1C(=O)[C@@H](N)C(C)(C)C)Oc1nc3c(cccc3n1C(C)C)C1=NC(C(C)C)=C(CC/C=C\CCCCS(=O)(=O)NC2=O)S1` [Compound 108] displayed an EC50 in assay [1] not below 100 nM. In addition, the IC50 in assay [2] was not below 100 nM.

In assay [1], `CC[C@@H]1C[C@@]12NC(=O)[C@@H]1C[C@H](CN1C(=O)[C@@H](N)C(C)(C)C)Oc1nc3c(cccc3n1C(C)C)C1=NC(C(C)C)=C(CC/C=C/CCCCS(=O)(=O)NC2=O)S1` [Compound 109] displayed an EC50 not below 100 nM. In assay [2], this compound returned an IC50 not below 100 nM.
